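These data come from cells grown in 96-well plates and exposed to compound for 48 hours at five concentrations. GI50: concentration for 50% inhibition of growth.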 The source made the active and inactive calls. Cut-off read from the data, not from the text of the source: active = GI50 up to about 1.1 µM and inactive = higher.
Legend:
Experiment in all cases: NCI tumour cell line growth inhibition, 48 h
[1] = system: 786-0
[2] = system: A498
[3] = system: A549
[4] = system: ACHN
[5] = system: CAKI-1
[6] = system: CCRF-CEM
[7] = system: COLO 205
[8] = system: DU-145
[9] = system: EKVX
[10] = system: HCC 2998
[11] = system: HCT-116
[12] = system: HCT-15
[13] = system: HL-60
[14] = system: HOP-62
[15] = system: HOP-92
[16] = system: HT-29
[17] = system: Hs-578T
[18] = system: IGROV-1
[19] = system: K562
[20] = system: KM12
[21] = system: LOX IMVI
[22] = system: M14
[23] = system: MCF7
[24] = system: MDA-MB-231
[25] = system: MDA-MB-435
[26] = system: MDA-N
[27] = system: MOLT-4
[28] = system: Malme-3M
[29] = system: NCI-H226
[30] = system: NCI-H23
[31] = system: NCI-H460
[32] = system: NCI-H522
[33] = system: NCI/ADR-RES
[34] = system: OVCAR-3
[35] = system: OVCAR-4
[36] = system: OVCAR-5
[37] = system: OVCAR-8
[38] = system: PC-3
[39] = system: RPMI-8226
[40] = system: RXF 393
[41] = system: SF-268
[42] = system: SF-295
[43] = system: SF-539
[44] = system: SK-MEL-28
[45] = system: SK-MEL-2
[46] = system: SK-MEL-5
[47] = system: SK-OV-3
[48] = system: SN12C
[49] = system: SNB-19
[50] = system: SR
[51] = system: SW-620
[52] = system: T47D
[53] = system: TK-10
[54] = system: U-251
[55] = system: UACC-257
[56] = system: UACC-62
[57] = system: UO-31

Cc1nc2ccccc2c(-n2cccn2)c1CCn1cccn1
GI50 [1]: > 100 µM (inactive) | GI50 [2]: 46.3 µM (inactive) | GI50 [3]: > 100 µM (inactive) | GI50 [4]: 80.7 µM (inactive) | GI50 [5]: > 100 µM (inactive) | GI50 [6]: 66.1 µM (inactive) | GI50 [7]: 96.6 µM (inactive) | GI50 [8]: > 100 µM (inactive) | GI50 [9]: > 100 µM (inactive) | GI50 [10]: > 100 µM (inactive) | GI50 [11]: > 100 µM (inactive) | GI50 [12]: > 100 µM | GI50 [13]: > 100 µM (inactive) | GI50 [14]: > 100 µM (inactive) | GI50 [15]: 52.8 µM (inactive) | GI50 [16]: > 100 µM (inactive) | GI50 [17]: > 100 µM (inactive) | GI50 [18]: 85.9 µM (inactive) | GI50 [19]: 55 µM (inactive) | GI50 [20]: > 100 µM (inactive) | GI50 [21]: 50.6 µM (inactive) | GI50 [22]: > 100 µM (inactive) | GI50 [23]: > 100 µM (inactive) | GI50 [24]: 51.4 µM (inactive) | GI50 [25]: > 100 µM (inactive) | GI50 [26]: > 100 µM (inactive) | GI50 [27]: 39.4 µM (inactive) | GI50 [28]: > 100 µM (inactive) | GI50 [29]: > 100 µM (inactive) | GI50 [30]: > 100 µM (inactive) | GI50 [31]: > 100 µM (inactive) | GI50 [32]: > 100 µM (inactive) | GI50 [33]: > 100 µM (inactive) | GI50 [34]: 40.4 µM (inactive) | GI50 [35]: 23.8 µM (inactive) | GI50 [36]: > 100 µM (inactive) | GI50 [37]: > 100 µM (inactive) | GI50 [38]: > 100 µM (inactive) | GI50 [39]: > 100 µM (inactive) | GI50 [40]: > 100 µM (inactive) | GI50 [41]: > 100 µM (inactive) | GI50 [42]: > 100 µM (inactive) | GI50 [43]: > 100 µM (inactive) | GI50 [44]: > 100 µM (inactive) | GI50 [45]: > 100 µM (inactive) | GI50 [46]: 46.6 µM (inactive) | GI50 [47]: > 100 µM (inactive) | GI50 [48]: > 100 µM (inactive) | GI50 [49]: > 100 µM (inactive) | GI50 [50]: 71.4 µM (inactive) | GI50 [51]: > 100 µM (inactive) | GI50 [52]: > 100 µM (inactive) | GI50 [53]: > 100 µM (inactive) | GI50 [54]: > 100 µM (inactive) | GI50 [55]: > 100 µM (inactive) | GI50 [56]: 80.2 µM (inactive) | GI50 [57]: 1.77 µM (inactive)

Source: ChEMBL document CHEMBL1201862, “PubChem BioAssay data set” (2004)
